The values that follow come from US20200055897A1, “MODIFIED PEPTOIDS” (Technion Research & Development Foundation Limited, priority 2017, published 2020).

For orientation: solubility means the concentration that dissolves in the medium under given conditions.

Starred links: 1 amine or outer side, 2 acyl side, 3 side chain; linkers in the order of their positions; H or OH if unused. Non-standard residues stand in square brackets, D forms with d. Residues, ends and D or L forms follow the SMILES beside them. *: point of attachment. N(1S-cyclohexylethyl)Gly = C[C@H](NCC(=O)O)C1CCCCC1; Gly(N-CH2CH2C6H4-4Cl) = O=C(O)CNCCc1ccc(Cl)cc1; NMeGly(N-(2-F-benzyl)) = CN(CC(=O)*)Cc1ccccc1F; Acetyl(2-(piperazin-1-yl)) = O=C(CN1CCNCC1)*; Hydrazinoacetyl = O=C(CNN[*:1])[*:2]; Gly(Nα-NHCO2Et) = CCOC(=O)NNCC(=O)O; Nrpe = C[C@@H](NCC(=O)O)c1ccccc1; Nspe = C[C@H](NCC(=O)O)c1ccccc1; X1 = O=C(CN1CCN([*:1])CC1)[*:2]; Ethoxycarbonyl = CCOC(=O)*; Nphe = O=C(O)CNCc1ccccc1; X5 = NC(=O)CN1CCN(*)CC1; X3 = O=C(CN1CCCNCC1)*

The nature of the first series: General method for water solubility test (gradual addition of water to 1 mg peptoid until clear).
Conditions: not given
The series is classed as physicochemical. How it is done: 1 mg peptoid was placed in an Eppendorf container and water was added gradually (e.g., […] per addition) until a clear solution was obtained. The solubility test was repeated three times and average values are presented. The limit of the test was typically 2.0×10^2 mg/liter (i.e., 1 mg per 5 ml).
Water solubility tests were carried out by a gradual addition of 5 μl distilled water to 1 mg peptoid until a clear solution was obtained. This assay was repeated three times and results were averaged.
`C[C@H](NCC(=O)N(CC(=O)N(CC(=O)N(CC(=O)N(CC(=O)N(CC(N)=O)[C@@H](C)c1ccccc1)[C@@H](C)c1ccccc1)[C@@H](C)c1ccccc1)[C@@H](C)c1ccccc1)[C@@H](C)c1ccccc1)c1ccccc1` [Peptoid P1, (Nspe)6, reference compound] (H-[Nspe][Nspe][Nspe][Nspe][Nspe][Nspe]-NH2): the solubility is < 0.2 mg/mL.
Same read-out and setting: next, `C[C@H](NCC(=O)N(CC(=O)N(CC(=O)N(CC(=O)N(CC(=O)N(CC(=O)N1CCN(CC(N)=O)CC1)[C@@H](C)c1ccccc1)[C@@H](C)c1ccccc1)[C@@H](C)c1ccccc1)[C@@H](C)c1ccccc1)[C@@H](C)c1ccccc1)c1ccccc1` [Peptoid P3, Npz-(Nspe)6] (H-[Nspe][Nspe][Nspe][Nspe][Nspe][Nspe]-X5): ~900 µM; `C[C@@H](c1ccccc1)N1CC(=O)N(CC(N)=O)CCCN2CCN(CC2)CC(=O)N([C@@H](C)c2ccccc2)CC(=O)N([C@@H](C)c2ccccc2)CC(=O)N([C@@H](C)c2ccccc2)CC(=O)N([C@@H](C)c2ccccc2)CC(=O)N([C@@H](C)c2ccccc2)CC1=O` [Peptoid P4, Npl-(Nspe)6-Npz (cyclic)]: ~700 µM.
On to `C[C@@H](c1ccccc1)N(CC(N)=O)C(=O)CN(C(=O)CN(C(=O)CN(C(=O)CN(C(=O)CN(C(=O)CN1CCCNCC1)[C@@H](C)c1ccccc1)[C@@H](C)c1ccccc1)[C@@H](C)c1ccccc1)[C@@H](C)c1ccccc1)[C@@H](C)c1ccccc1` [Peptoid P7, (Nspe)6-Nhpz] (X3-[Nspe][Nspe][Nspe][Nspe][Nspe][Nspe]-NH2), for which the “Water solubility relative to that of P2” value is recorded as “about 50 times” and the concentration in solution (solubility) came to 49.6 mg/mL.
Regarding `C[C@H](NCC(=O)N(CC(=O)N(CC(=O)N(CC(N)=O)[C@@H](C)c1cccc2ccccc12)[C@@H](C)c1cccc2ccccc12)[C@@H](C)c1cccc2ccccc12)c1cccc2ccccc12` [Peptoid P9, (Ns1npe)4, reference compound], the solubility is < 0.2 mg/mL.
Same read-out and setting: as for `C[C@H](NCC(=O)N(CC(=O)N(CC(=O)N(CC(=O)N(CC(N)=O)[C@@H](C)C1CCCCC1)[C@@H](C)C1CCCCC1)[C@@H](C)C1CCCCC1)[C@@H](C)C1CCCCC1)C1CCCCC1` [Peptoid P10, (Nsch)5, reference compound], the figure is < 0.2 mg/mL.
With `C[C@@H](C1CCCCC1)N(CC(=O)N(CCc1ccc(Cl)cc1)CC(=O)N(CC(=O)N(CC(=O)N(CC(N)=O)Cc1ccccc1)Cc1ccccc1)[C@@H](C)C1CCCCC1)C(=O)CN(C)Cc1ccccc1F` [Peptoid P11, (Npm)2-Nsch-Ncpe-Nsch-Nfpm, reference compound] ({NMeGly(N-(2-F-benzyl))}-[N(1S-cyclohexylethyl)Gly][Gly(N-CH2CH2C6H4-4Cl)][N(1S-cyclohexylethyl)Gly][Nphe][Nphe]-NH2), the solubility was < 0.2 mg/mL.
On the same count and under the same terms, as for `C[C@@H](c1cccc2ccccc12)N(CC(N)=O)C(=O)CN(C(=O)CN(C(=O)CN(C(=O)CN1CCNCC1)[C@@H](C)c1cccc2ccccc12)[C@@H](C)c1cccc2ccccc12)[C@@H](C)c1cccc2ccccc12` [Peptoid P12, (Ns1npe)4-Npz], the figure is < 0.2 mg/mL; as for `C[C@H](NCC(=O)N(CC(=O)N(CC(=O)N(CC(=O)N1CCN(CC(N)=O)CC1)[C@@H](C)c1cccc2ccccc12)[C@@H](C)c1cccc2ccccc12)[C@@H](C)c1cccc2ccccc12)c1cccc2ccccc12` [Peptoid P13, Npz-(Ns1npe)4], < 0.2 mg/mL; as for `C[C@@H](c1cccc2ccccc12)N(CC(N)=O)C(=O)CN(C(=O)CN(C(=O)CN(C(=O)CN1CCCNCC1)[C@@H](C)c1cccc2ccccc12)[C@@H](C)c1cccc2ccccc12)[C@@H](C)c1cccc2ccccc12` [Peptoid P14, (Ns1npe)4-Nhpz], < 0.2 mg/mL.
The same measure, in the same setting: next, `C[C@@H](C1CCCCC1)N(CC(N)=O)C(=O)CN(C(=O)CN(C(=O)CN(C(=O)CN(C(=O)CN1CCNCC1)[C@@H](C)C1CCCCC1)[C@@H](C)C1CCCCC1)[C@@H](C)C1CCCCC1)[C@@H](C)C1CCCCC1` [Peptoid P15, (Nsch)5-Npz]: < 0.2 mg/mL.
Still for that read-out and setting: next, `C[C@@H](C1CCCCC1)N(CC(N)=O)C(=O)CN(C(=O)CN(C(=O)CN(C(=O)CN(C(=O)CN1CCCNCC1)[C@@H](C)C1CCCCC1)[C@@H](C)C1CCCCC1)[C@@H](C)C1CCCCC1)[C@@H](C)C1CCCCC1` [Peptoid P16, (Nsch)5-Nhpz]: < 0.2 mg/mL; `C[C@@H](C1CCCCC1)N(CC(=O)N(CCc1ccc(Cl)cc1)CC(=O)N(CC(=O)N(CC(=O)N(CC(=O)N1CCN(CC(N)=O)CC1)Cc1ccccc1)Cc1ccccc1)[C@@H](C)C1CCCCC1)C(=O)CN(C)Cc1ccccc1F` [Peptoid P17, Npz-(Npm)2-Nsch-Ncpe-Nsch-Nfpm] ({NMeGly(N-(2-F-benzyl))}-[N(1S-cyclohexylethyl)Gly][Gly(N-CH2CH2C6H4-4Cl)][N(1S-cyclohexylethyl)Gly][Nphe][Nphe]-X5): < 0.2 mg/mL; `C[C@@H](C1CCCCC1)N(CC(N)=O)C(=O)CN(C(=O)CN(C(=O)CN(C(=O)CN(C(=O)CN1CCN(C(=O)CN2CCNCC2)CC1)[C@@H](C)C1CCCCC1)[C@@H](C)C1CCCCC1)[C@@H](C)C1CCCCC1)[C@@H](C)C1CCCCC1` [Peptoid P19, (Nsch)5-(Npz)2] ({Acetyl(2-(piperazin-1-yl))}-[X1][N(1S-cyclohexylethyl)Gly][N(1S-cyclohexylethyl)Gly][N(1S-cyclohexylethyl)Gly][N(1S-cyclohexylethyl)Gly][N(1S-cyclohexylethyl)Gly]-NH2): 7.52 mg/mL.
As for `C[C@@H](C1CCCCC1)N(CC(=O)N(CCc1ccc(Cl)cc1)CC(=O)N(CC(=O)N(CC(=O)N(CC(=O)N1CCN(CC(=O)N2CCN(CC(N)=O)CC2)CC1)Cc1ccccc1)Cc1ccccc1)[C@@H](C)C1CCCCC1)C(=O)CN(C)Cc1ccccc1F` [Peptoid P20, (Npz)2-(Npm)2-Nsch-Ncpe-Nsch-Nfpm] ({NMeGly(N-(2-F-benzyl))}-[N(1S-cyclohexylethyl)Gly][Gly(N-CH2CH2C6H4-4Cl)][N(1S-cyclohexylethyl)Gly][Nphe][Nphe][X1]-X5), the solubility came out at 84.4 mg/mL.
On the same count and under the same terms, as for `C[C@@H](C1CCCCC1)N(CC(N)=O)C(=O)CN(C(=O)CN(C(=O)CN(C(=O)CN(C(=O)CN1CCN(C(=O)CN2CCN(C(=O)CN3CCNCC3)CC2)CC1)[C@@H](C)C1CCCCC1)[C@@H](C)C1CCCCC1)[C@@H](C)C1CCCCC1)[C@@H](C)C1CCCCC1` [Peptoid P22, (Nsch)5-(Npz)3] ({Acetyl(2-(piperazin-1-yl))}-[X1][X1][N(1S-cyclohexylethyl)Gly][N(1S-cyclohexylethyl)Gly][N(1S-cyclohexylethyl)Gly][N(1S-cyclohexylethyl)Gly][N(1S-cyclohexylethyl)Gly]-NH2), the figure is 73.5 mg/mL; as for `C[C@@H](C1CCCCC1)N(CC(=O)N(CCc1ccc(Cl)cc1)CC(=O)N(CC(=O)N(CC(=O)N(CC(=O)N1CCN(CC(=O)N2CCN(CC(=O)N3CCN(CC(N)=O)CC3)CC2)CC1)Cc1ccccc1)Cc1ccccc1)[C@@H](C)C1CCCCC1)C(=O)CN(C)Cc1ccccc1F` [Peptoid P23, (Npz)3-(Npm)2-Nsch-Ncpe-Nsch-Nfpm] ({NMeGly(N-(2-F-benzyl))}-[N(1S-cyclohexylethyl)Gly][Gly(N-CH2CH2C6H4-4Cl)][N(1S-cyclohexylethyl)Gly][Nphe][Nphe][X1][X1]-X5), 135 mg/mL; as for `C[C@H](c1ccccc1)N(CCC(N)=O)C(=O)CCN(C(=O)CCN(C(=O)CCN(C(=O)CCN(C(=O)CCN[C@H](C)c1ccccc1)[C@H](C)c1ccccc1)[C@H](C)c1ccccc1)[C@H](C)c1ccccc1)[C@H](C)c1ccccc1` [Peptoid P24, reference compound], < 0.2 mg/mL.
On the same count and under the same terms, next, `C[C@H](c1ccccc1)N(CCC(N)=O)C(=O)CCN(C(=O)CCN(C(=O)CCN(C(=O)CCN(C(=O)CCN(C(=O)CN1CCNCC1)[C@H](C)c1ccccc1)[C@H](C)c1ccccc1)[C@H](C)c1ccccc1)[C@H](C)c1ccccc1)[C@H](C)c1ccccc1` [Peptoid P25]: < 0.2 mg/mL; `C[C@H](c1ccccc1)N(CCC(N)=O)C(=O)CCN(C(=O)CCN(C(=O)CCN(C(=O)CCN(C(=O)CCN(C(=O)CN1CCN(C(=O)CN2CCNCC2)CC1)[C@H](C)c1ccccc1)[C@H](C)c1ccccc1)[C@H](C)c1ccccc1)[C@H](C)c1ccccc1)[C@H](C)c1ccccc1` [Peptoid P26]: 103 mg/mL.
Regarding `CCOC(=O)NNCC(=O)N(CC(=O)N(CC(=O)N(CC(=O)N(CC(=O)N(CC(N)=O)[C@H](C)c1ccccc1)NC(=O)OCC)[C@H](C)c1ccccc1)NC(=O)OCC)[C@H](C)c1ccccc1` [Peptoid P28, reference compound] (Ethoxycarbonyl-[Hydrazinoacetyl][Nrpe][Gly(Nα-NHCO2Et)][Nrpe][Gly(Nα-NHCO2Et)][Nrpe]-NH2), the solubility was < 0.2 mg/mL.
In turn, `CCOC(=O)NN(CC(=O)N(CC(N)=O)[C@H](C)c1ccccc1)C(=O)CN(C(=O)CN(NC(=O)OCC)C(=O)CN(C(=O)CN(NC(=O)OCC)C(=O)CN1CCNCC1)[C@H](C)c1ccccc1)[C@H](C)c1ccccc1` [Peptoid P29] ({Acetyl(2-(piperazin-1-yl))}-[Gly(Nα-NHCO2Et)][Nrpe][Gly(Nα-NHCO2Et)][Nrpe][Gly(Nα-NHCO2Et)][Nrpe]-NH2) showed a solubility of 50.6 mg/mL.

Staying with this series, now noted: pH 10.5.
For `C[C@@H](c1ccccc1)N(CC(N)=O)C(=O)CN(C(=O)CN(C(=O)CN(C(=O)CN(C(=O)CN(C(=O)CN1CCN(C(=O)CN2CCN(C(=O)CN3CCNCC3)CC2)CC1)[C@@H](C)c1ccccc1)[C@@H](C)c1ccccc1)[C@@H](C)c1ccccc1)[C@@H](C)c1ccccc1)[C@@H](C)c1ccccc1` [Peptoid P6, (Nspe)6-(Npz)3] ({Acetyl(2-(piperazin-1-yl))}-[X1][X1][Nspe][Nspe][Nspe][Nspe][Nspe][Nspe]-NH2), the “Water solubility at pH 10.5 (in words)” value is “highly soluble” and the “Water solubility relative to that of P2 at pH 10.5” value stood at 106 times.

Still in this series, the particulars now being: water; average of three tests; limit of test 2.0×10^2 mg/liter; read-out: Water solubility.
As to `C[C@@H](c1ccccc1)N(CC(N)=O)C(=O)CN(C(=O)CN(C(=O)CN(C(=O)CN(C(=O)CN(C(=O)CN1CCN(C(=O)CN2CCN(C(=O)CN3CCNCC3)CC2)CC1)[C@@H](C)c1ccccc1)[C@@H](C)c1ccccc1)[C@@H](C)c1ccccc1)[C@@H](C)c1ccccc1)[C@@H](C)c1ccccc1` [Peptoid P6, (Nspe)6-(Npz)3] ({Acetyl(2-(piperazin-1-yl))}-[X1][X1][Nspe][Nspe][Nspe][Nspe][Nspe][Nspe]-NH2), the solubility came to 88.6 mg/mL.
Regarding `C[C@H](c1ccccc1)N(CCC(N)=O)C(=O)CCN(C(=O)CCN(C(=O)CCN(C(=O)CCN(C(=O)CCN(C(=O)CN1CCN(C(=O)CN2CCN(C(=O)CN3CCNCC3)CC2)CC1)[C@H](C)c1ccccc1)[C@H](C)c1ccccc1)[C@H](C)c1ccccc1)[C@H](C)c1ccccc1)[C@H](C)c1ccccc1` [Peptoid P27], the solubility was determined as 196 mg/mL.
